Laboratory results from patent US20070128217A1 (priority 2003, published 2007).

What was measured:
[1] = tested on: rabbit serum obtained by immunizing a rabbit with the SARS-CoV strain Frankfurt 1; format: binding; parameters: Binding of a rabbit serum to linear peptides / Binding of a rabbit serum to looped peptides / Rabbit serum linear peptides / Rabbit serum looped peptides / Binding of a rabbit serum to linear peptides of protein N of SARS-CoV Urbani (Rabbit serum linear peptides) / Binding of a rabbit serum to looped/cyclic peptides of protein N of SARS-CoV Urbani (Rabbit serum looped peptides): unit not given here
[2] = tested on: control sera (pooled serum of ten healthy LUMC hospital workers; commercial negative donor pooled serum from the Dutch bloodbank); format: binding, human; parameters: Binding of Control serum LUMC to linear peptides / Binding of Control serum Blood-bank to linear peptides / Binding of Control serum LUMC to looped peptides / Binding of Control Serum Blood-Bank to Looped peptides / Binding of Control serum LUMC to linear peptides of the protein M of SARS-CoV Urbani / Binding of Control serum Blood-bank to linear peptides of the protein M of SARS-CoV Urbani / Binding of Control serum LUMC to looped peptides of the protein M of SARS-CoV Urbani / Binding of Control Serum Blood-Bank to Looped peptides of the protein M of SARS-CoV Urbani: unit not given here
[3] = tested on: antibodies in sera from SARS patients (sera 1a, 1b, 2, 6, 37, 62, London, SARS-yellow, SARS-green); format: binding, human; parameters: Binding of serum 6 to linear peptides of protein X1 of SARS-CoV Urbani / Binding of serum 37 to linear peptides of protein X1 of SARS-CoV Urbani / Binding of serum 6 to looped/cyclic peptide (PEPSCAN-ELISA) / Binding of serum 37 to looped/cyclic peptide (PEPSCAN-ELISA) / Binding of serum 37 to looped/cyclic peptides of protein X1 of SARS-CoV Urbani / Binding of serum 6 to linear peptides of protein X2 / Binding of serum 37 to linear peptides of protein X2 / Binding of serum 37 to looped/cyclic peptides of protein X2 of SARS-CoV Urbani / Binding of serum 6 to linear peptides of protein M of SARS-CoV Urbani / Binding of serum 37 to linear peptides of protein M of SARS-CoV Urbani / Binding of serum 6 to looped/cyclic peptides of protein M of SARS-CoV Urbani / Binding of serum 37 to looped/cyclic peptides of protein M of SARS-CoV Urbani / Binding of serum 6 to linear peptides of protein X3 of SARS-CoV Urbani / Binding of serum 37 to linear peptides of protein X3 of SARS-CoV Urbani / Binding of serum 37 to looped/cyclic peptides of protein X3 of SARS-CoV Urbani / Binding of serum 6 to linear peptides of protein X4 of SARS-CoV Urbani / Binding of serum 37 to linear peptides of protein X4 of SARS-CoV Urbani / Binding of serum 37 to looped/cyclic peptides of protein X4 of SARS-CoV Urbani / Binding of serum 6 to linear peptides of protein X5 of SARS-CoV Urbani / Binding of serum 37 to linear peptides of protein X5 of SARS-CoV Urbani / Binding of serum 37 to looped/cyclic peptides of protein X5 of SARS-CoV Urbani / Binding of serum 6 to linear peptides of protein N of SARS-CoV Urbani / Binding of serum 37 to linear peptides of protein N of SARS-CoV Urbani / Binding of serum 6 to linear peptide (PEPSCAN-ELISA) / Binding of serum 1a to looped/cyclic peptides of protein N of SARS-CoV Urbani / Binding of serum 1b to looped/cyclic peptides of protein N of SARS-CoV Urbani / Binding of serum 2 to looped/cyclic peptides of protein N of SARS-CoV Urbani / Binding of serum 6 to looped/cyclic peptides of protein N of SARS-CoV Urbani / Binding of serum 37 to looped/cyclic peptides of protein N of SARS-CoV Urbani / Binding of serum 62 to looped/cyclic peptides of protein N of SARS-CoV Urbani / Binding of serum London to looped/cyclic peptides of protein N of SARS-CoV Urbani / Binding of serum SARS-green to looped/cyclic peptides of protein N of SARS-CoV Urbani: unit not given here

EAQFLYLYALIYFLQ was tested, and the “Binding of a rabbit serum to linear peptides” value [1] was 0.1, the “Binding of a rabbit serum to looped peptides” value [1] was 0.5 and the “Binding of Control Serum Blood-Bank to Looped peptides” value [2] was 0.4. The “Binding of Control serum Blood-bank to linear peptides” value [2] was 0.3, the “Binding of Control serum LUMC to linear peptides” value [2] was 0.5 and the “Binding of Control serum LUMC to looped peptides” value [2] was 0.5. The “Binding of serum 1a to linear peptides of protein X1 of SARS-CoV Urbani” value [3] was 0.7, the “Binding of serum 1a to looped/cyclic peptide (PEPSCAN-ELISA)” value [3] was 0.5 and the “Binding of serum 1b to linear peptides of protein X1 of SARS-CoV Urbani” value [3] was 0.4. The “Binding of serum 1b to looped/cyclic peptide (PEPSCAN-ELISA)” value [3] was 0.3, the “Binding of serum 2 to linear peptides of protein X1 of SARS-CoV Urbani” value [3] was 0.6 and the “Binding of serum 2 to looped/cyclic peptide (PEPSCAN-ELISA)” value [3] was 0.4. The “Binding of serum 6 to linear peptides of protein X1 of SARS-CoV Urbani” value [3] was 0.4, the “Binding of serum 6 to looped/cyclic peptide (PEPSCAN-ELISA)” value [3] was 0.2 and the “Binding of serum 37 to linear peptides of protein X1 of SARS-CoV Urbani” value [3] was 0.5. The “Binding of serum 37 to looped/cyclic peptide (PEPSCAN-ELISA)” value [3] was 0.5, the “Binding of serum 62 to linear peptides of protein X1 of SARS-CoV Urbani” value [3] was 0.4 and the “Binding of serum 62 to looped/cyclic peptide (PEPSCAN-ELISA)” value [3] was 0.5. The “Binding of serum London to linear peptides of protein X1 of SARS-CoV Urbani” value [3] was 0.2, the “Binding of serum London to looped/cyclic peptide (PEPSCAN-ELISA)” value [3] was 0.2 and the “Binding of serum SARS-green to linear peptides of protein X1 of SARS-CoV Urbani” value [3] was 0.1. The “Binding of serum SARS-green to looped/cyclic peptide (PEPSCAN-ELISA)” value [3] was 0.2, the “Binding of serum SARS-yellow to linear peptides of protein X1 of SARS-CoV Urbani” value [3] was 0.2 and the “Binding of serum SARS-yellow to looped/cyclic peptide (PEPSCAN-ELISA)” value [3] was 0.3.
For EEVQQELYSPLFLIV, the “Rabbit serum linear peptides” value [1] was 0.4, the “Rabbit serum looped peptides” value [1] was 0.5 and the “Binding of Control Serum Blood-Bank to Looped peptides” value [2] was 1.0. For the same sequence, the “Binding of Control serum Blood-bank to linear peptides” value [2] was 0.6, the “Binding of Control serum LUMC to linear peptides” value [2] was 0.6 and the “Binding of Control serum LUMC to looped peptides” value [2] was 1.0. For the same sequence, the “Binding of serum 1a to linear peptides of protein X4 of SARS-CoV Urbani” value [3] was 0.7, the “Binding of serum 1b to linear peptides of protein X4 of SARS-CoV Urbani” value [3] was 0.6 and the “Binding of serum 2 to linear peptides of protein X4 of SARS-CoV Urbani” value [3] was 0.6. The “Binding of serum 6 to linear peptides of protein X4 of SARS-CoV Urbani” value [3] was 0.6, the “Binding of serum 37 to linear peptides of protein X4 of SARS-CoV Urbani” value [3] was 0.7 and the “Binding of serum 62 to linear peptides of protein X4 of SARS-CoV Urbani” value [3] was 0.8. For the same sequence, the “Binding of serum London to linear peptides of protein X4 of SARS-CoV Urbani” value [3] was 0.7, the “Binding of serum SARS-green to linear peptides of protein X4 of SARS-CoV Urbani” value [3] was 0.7 and the “Binding of serum SARS-yellow to linear peptides of protein X4 of SARS-CoV Urbani” value [3] was 0.8. The “Recognition of the peptide by sera of SARS-CoV infected individuals, and form (linear, looped/cyclic) in which it is recognized” value [3] was “recognized in looped/cyclic form”.
EGDGISTPKLKEDYQ was tested, and the “Binding of a rabbit serum to linear peptides” value [1] was 0.1, the “Binding of a rabbit serum to looped peptides” value [1] was 0.4 and the “Binding of Control Serum Blood-Bank to Looped peptides” value [2] was 0.4. The “Binding of Control serum Blood-bank to linear peptides” value [2] was 0.2, the “Binding of Control serum LUMC to linear peptides” value [2] was 0.3 and the “Binding of Control serum LUMC to looped peptides” value [2] was 0.4. The “Binding of serum 1a to linear peptides of protein X1 of SARS-CoV Urbani” value [3] was 0.6, the “Binding of serum 1a to looped/cyclic peptides of protein X1 of SARS-CoV Urbani” value [3] was 0.4 and the “Binding of serum 1b to linear peptides of protein X1 of SARS-CoV Urbani” value [3] was 0.3. For the same sequence, the “Binding of serum 1b to looped/cyclic peptides of protein X1 of SARS-CoV Urbani” value [3] was 0.3, the “Binding of serum 2 to linear peptides of protein X1 of SARS-CoV Urbani” value [3] was 0.6 and the “Binding of serum 2 to looped/cyclic peptides of protein X1 of SARS-CoV Urbani” value [3] was 0.2. For the same sequence, the “Binding of serum 6 to linear peptides of protein X1 of SARS-CoV Urbani” value [3] was 0.3, the “Binding of serum 6 to looped/cyclic peptides of protein X1 of SARS-CoV Urbani” value [3] was 0.2 and the “Binding of serum 37 to linear peptides of protein X1 of SARS-CoV Urbani” value [3] was 0.5. The “Binding of serum 37 to looped/cyclic peptides of protein X1 of SARS-CoV Urbani” value [3] was 0.3, the “Binding of serum 62 to linear peptides of protein X1 of SARS-CoV Urbani” value [3] was 0.4 and the “Binding of serum 62 to looped/cyclic peptides of protein X1 of SARS-CoV Urbani” value [3] was 0.3. For the same sequence, the “Binding of serum London to linear peptides of protein X1 of SARS-CoV Urbani” value [3] was 0.3, the “Binding of serum London to looped/cyclic peptides of protein X1 of SARS-CoV Urbani” value [3] was 0.2 and the “Binding of serum SARS-green to linear peptides of protein X1 of SARS-CoV Urbani” value [3] was 0.2. The “Binding of serum SARS-green to looped/cyclic peptides of protein X1 of SARS-CoV Urbani” value [3] was 0.2, the “Binding of serum SARS-yellow to linear peptides of protein X1 of SARS-CoV Urbani” value [3] was 0.2 and the “Binding of serum SARS-yellow to looped/cyclic peptides of protein X1 of SARS-CoV Urbani” value [3] was 0.1.
For EITVATSRTLSYYKL, the “Rabbit serum linear peptides” value [1] was 0.7, the “Rabbit serum looped peptides” value [1] was 0.1 and the “Binding of Control Serum Blood-Bank to Looped peptides of the protein M of SARS-CoV Urbani” value [2] was 0.7. For the same sequence, the “Binding of Control serum Blood-bank to linear peptides of the protein M of SARS-CoV Urbani” value [2] was 0.7, the “Binding of Control serum LUMC to linear peptides of the protein M of SARS-CoV Urbani” value [2] was 0.4 and the “Binding of Control serum LUMC to looped peptides of the protein M of SARS-CoV Urbani” value [2] was 0.6. The “Binding of serum 1a to linear peptides of protein M of SARS-CoV Urbani” value [3] was 0.7, the “Binding of serum 1a to looped/cyclic peptides of protein M of SARS-CoV Urbani” value [3] was 0.6 and the “Binding of serum 1b to linear peptides of protein M of SARS-CoV Urbani” value [3] was 0.5. For the same sequence, the “Binding of serum 1b to looped/cyclic peptides of protein M of SARS-CoV Urbani” value [3] was 0.4, the “Binding of serum 2 to linear peptides of protein M of SARS-CoV Urbani” value [3] was 0.6 and the “Binding of serum 2 to looped/cyclic peptides of protein M of SARS-CoV Urbani” value [3] was 0.5. The “Binding of serum 6 to linear peptides of protein M of SARS-CoV Urbani” value [3] was 0.4, the “Binding of serum 6 to looped/cyclic peptides of protein M of SARS-CoV Urbani” value [3] was 0.5 and the “Binding of serum 37 to linear peptides of protein M of SARS-CoV Urbani” value [3] was 0.8. For the same sequence, the “Binding of serum 37 to looped/cyclic peptides of protein M of SARS-CoV Urbani” value [3] was 0.5, the “Binding of serum 62 to linear peptides of protein M of SARS-CoV Urbani” value [3] was 0.9 and the “Binding of serum 62 to looped/cyclic peptides of protein M of SARS-CoV Urbani” value [3] was 0.5. The “Binding of serum London to linear peptides of protein M of SARS-CoV Urbani” value [3] was 0.3, the “Binding of serum London to looped/cyclic peptides of protein M of SARS-CoV Urbani” value [3] was 0.2 and the “Binding of serum SARS-green to linear peptides of protein M of SARS-CoV Urbani” value [3] was 0.4. The “Binding of serum SARS-green to looped/cyclic peptides of protein M of SARS-CoV Urbani” value [3] was 0.3, the “Binding of serum SARS-yellow to linear peptides of protein M of SARS-CoV Urbani” value [3] was 0.1 and the “Binding of serum SARS-yellow to looped/cyclic peptides of protein M of SARS-CoV Urbani” value [3] was 0.5.
